Measured values: patent publication US20100047227A1, “NOVEL ANTICANCER CATHEPSIN FORMULATIONS AND ANTICANCER AGENT FOR USE IN COMBINED ANTICANCER THERAPY” (priority 2006, published 2010)

Columns and labels:
[1] = tested on: human prostate cancer ALVA-41 cells; test: measurement for apoptosis (morphology, annexin V staining, TUNEL assay), ALVA-41 cells; assay type: cell-based; conditions: ALVA-41 cells
Procedure: The cells were measured for a morphological variation of apoptosis by phase contrast microscopy. The cells of prophase and post-phase apoptosis were detected by annexin V staining and TUNEL assay. In order to carry out the annexin V staining of ALVA-41 cells, the cells were exposed to cathepsin E or cathepsin L for 4 hours and centrifuged. After centrifugation, the separated cells were washed twice with PBS and incubated with fluorescein isothiocyanate-conjugated annexin V for 10 minutes at room temperature in a dark place. The cells that were positive as a result of the annexin V staining were then detected with fluorescence microscope. The TUNEL assay was carried out for the incubated tumor cells using Apop Tag Peroxidase Apoptosis Detection Kit and for heterografts using Tumor TACS In Situ Apoptosis Detection Kit.
In the figure, an indicating bar scale represents 50 μm. […] In the figure, an indicating bar scale represents 50 μm.

[2] = tested on: various human prostate cancer cell lines; test: sensitivity of human prostate cancer cell lines to cathepsin E-induced apoptosis; assay type: cell-based
Procedure: The survival rate of cells was measured by Cell Counting Kit-8 in accordance with a manufacturer's manual. The method will be described briefly as follows. A 96-well (each 100 μl) plate was inoculated with cells (1×10^4 cells) and incubated for 24 hours, and the cells were incubated in a non-serum culture medium Opti-MEM together with a given concentration of each cathepsin purified from rat stomach (References #27 and #60-#62). Thereafter, the kit reagent (10 μl) was added to each well and the wells were incubated for another 1 hour. After incubation, each well was measured at the absorbance of 450 nm with a microplate reader.
In this assay, the cells to be tested were incubated to a ˜80% confluent state and then together with cathepsin E (100 μg/ml) or physiological saline at 37° C. and pH 7.4 for 20 hours, followed by measurements for the cell survival rate by a colorimetric assay. The cell survival rate is represented as a percentage of a corresponding value to the cells treated with physiological saline, and the data is represented as an average value±SD from the data obtained by four separate experiments. In this value, *p<0.001 represents a corresponding value to the cells treated with physiological saline. […] In this experiment, the cells were biotinylated with sulfo-NHS-SS-biotin as a […], decomposable reagent and lyzed, and the resulting cell lysate was incubated with streptoavidin-agarose beads at 4° C. for 2 hours. After the beads were washed, the related proteins were subjected to an immunoblot analysis using an anti-TRAIL antibody or an antibody to a TRAIL membrane-related receptor. The cell lysate portion was also subjected to a direct immunoblot analysis using an anti-β-actin antibody. As an alternative method, a culture medium of each cell line was immunoblot-analyzed using an anti-OPG antibody. […] Thereafter, the immunoblot was analyzed for its concentration in order to determine a quantity of a soluble TRAIL trimer. […]

TNF-α = test: ELISA of TNF-α in culture supernatant of ALVA-41 cells; assay type: cell-based, human; conditions: ALVA-41 cells treated with cathepsin E 100 μg/ml, 20 hours
Procedure: (§1) ALVA-41 cells (1×10^6 cells per a 6-cm dish) were incubated together with cathepsin E (100 μg/ml) in a non-serum culture medium Opti-MEM at 37° C. for 20 hours. The resulting culture supernatant was measured for amounts of TRAIL, FasL and TNF-α with ELSA kit in a manner as will be described briefly. A sample and a standard product (each 100 μl) were added to a microtiter plate immobilized with a monoclonal antibody to the corresponding member of the TNF family and incubated at room temperature for 2 hours. Then, the wells of the microtiter plate were washed four times with a washing buffer and 100 μl of biotin-conjugated monoclonal antibody was added to each wells of the plate, following by incubation at room temperature for 1 hour and washing the wells of the plate completely. Then, they were incubated together with 100 μl of streptoavidin-conjugated horseradish peroxidase at room temperature for 30 minutes and washed four times with a washing buffer. […] After an addition of a reaction terminating solution, the wells were measured at 450 nm with microreader.
(§2) In this experiment, the ALVA-41 cells were treated with cathepsin E (100 μg/ml) or physiological saline at 37° C. and pH 7.4 for 20 hours and measured for the amounts of TNF-α, FasL and TRAIL in the culture supernatant by ELSA. […] Apoptosis of the ALVA-41 cells was measured using the culture supernatant after immunoprecipitation. […]

TRAIL = test: ELISA of TRAIL in culture supernatant of ALVA-41 cells; assay type: cell-based, human; conditions: ALVA-41 cells treated with cathepsin E 100 μg/ml, 20 hours
Procedure: as §1, §2

cathepsin E was tested, and the “staining with annexin V and TUNEL reagent” value ([1]; 50 μg/ml) was “positive”, the “morphological changes of treated cells” value ([1]; microscopy, 100 μg/ml) was “morphological features of apoptosis” and the “induction of apoptosis in human prostate cancer cell lines” value ([2]; 100 μg/ml, 37° C., pH 7.4, 20 hours) was “induced apoptosis for all cells”. For the same substance, the “sensitivity as to cell survival effect, PC-3 cells relative to PPC-1 cells” value ([2]; PC-3 versus PPC-1) was “approximately 20 times”, the “order of increasing sensitivity of cell lines to cathepsin E-induced apoptosis” value ([2]; PPC-1, DU145, ALVA-41, PC-3) was “PPC-1<DU145≦ALVA-41<PC-3” and the “TNF-α in culture supernatant” value (TNF-α) was “little detected”. The “TRAIL in culture supernatant” value (TRAIL) was “apparently secreted”.
